According to the NIST ThermoML archive (doi:10.1021/je700119m):
Numbers after ± are expanded uncertainties.

Assays:
[1] = 298.15 K, 101.33 kPa, Liquid
[2] = refractive index (Na D-line) (dimensionless); details: 298.15 K; 101.33 kPa; Liquid; Standard Abbe refractometry

For `COS(=O)(=O)[O-].Cn1cc[n+](C)c1` [1,3-dimethylimidazolium methylsulfate], the mass density [1] was 1327.2 ± 2.7 kg/m3 and the refractive index [2] was 1.4827 ± 0.00078.
For `CCCCn1cc[n+](C)c1.F[P-](F)(F)(F)(F)F` [1-butyl-3-methylimidazolium hexafluorophosphate], the mass density [1] was 1367.3 ± 2.9 kg/m3 and the refractive index [2] was 1.40937 ± 0.00078.
Work on `CCC(C)=O` [butanone] yielded a mass density [1] of 799.7 ± 0.6 kg/m3 and a refractive index [2] of 1.37618 ± 0.00068.
With `CCO` [ethanol] the mass density [1] was 785.1 ± 0.5 kg/m3 and the refractive index [2] was 1.35929 ± 0.00068.
Molecule `CC(C)O` [propan-2-ol] has a mass density ([1]; Vibrating tube method) of 781 ± 0.4 kg/m3 and a refractive index [2] of 1.37496 ± 0.00068.
